For orientation: GI50 means the concentration at which growth is held to half of that of the control. What is called TGI is the concentration at which net growth stops. A low value points to more potent growth arrest.

This is an account of results in PubChem BioAssay (NCI).

Holding throughout (assay): DTP human tumour cell line panel, 48 h
The test system of assay [1] is HCT-116 colon.
Assay [2] has as its system COLO 205 colon.
The subject of assay [3] is SF-295 CNS.
For assay [4], the system named is HL-60(TB) leukemia.
Assay [5] concerns HOP-62 NSCLC.
Assay [6] deals with U251 CNS.
Assay [7] has as its system IGROV1 ovarian.
In assay [8] the test system is SNB-75 CNS.
In assay [9] the test system is HOP-92 NSCLC.
In assay [10] the test system is SK-MEL-28 melanoma.

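Exposure lasted 48 hours, with cells grown in 96-well plates and compounds tested at five concentrations. The concentration for 50% growth inhibition is given as GI50. TGI: total growth inhibition.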

As for `c1cc(OCCN2CCCCCC2)ccc1CNc1ccc2nc(CCC3CCCCC3)[nH]c2c1`, the GI50 was 1.62 µM in [1]; 1.81 µM in assay [2]; 1.94 µM in [3]; 1.76 µM in [4]; 1.85 µM in assay [5]; 1.6 µM in assay [6]. In addition, the GI50 in [7] is 2.04 µM; in [8], 1.5 µM; in assay [9], 0.836 µM. Moreover, the TGI in [1] is 3.14 µM; in assay [2], 3.57 µM; in assay [3], 3.82 µM; in [4] it was 3.8 µM; in assay [5] it was 3.81 µM; in assay [6], 3.17 µM. Besides, the TGI in assay [7] is 7.31 µM; in assay [8], 4.52 µM; in assay [9], 3.09 µM.
For `Cn1cccc1-c1cc(-c2cccs2)[nH]c(=O)c1C#N`, the GI50 was greater than 100 µM in [1]; greater than 100 µM in assay [2]; greater than 100 µM in assay [3]; 83.9 µM in assay [5]; greater than 100 µM in assay [6]; greater than 100 µM in [10]. For the same compound, the results for the GI50 in [7] and in assay [8] were 23 µM and 37.7 µM, respectively. Further, the concentration for total growth inhibition (TGI) in [1], in assay [2], in assay [3], in [5], in assay [6] and in assay [10] was greater than 100 µM each time. Also, the concentration for total growth inhibition (TGI) in assay [7] and in assay [8] was greater than 100 µM in each case.
`Cc1cc(O)c(C(c2cccnc2)c2c(O)cc(C)[nH]c2=O)c(=O)[nH]1`: the total growth inhibition concentration (TGI) in assay [1], in [2], in assay [3], in [4], in assay [5] and in assay [6] was greater than 100 µM throughout. The total growth inhibition concentration (TGI) in assay [10] and in assay [7] was greater than 100 µM throughout.
`COc1ccc(-c2nn(-c3cccc(NC(=O)Nc4ccc(Cl)c(C(F)(F)F)c4)c3)cc2-c2ccncc2)cc1Cl`: the GI50 in assay [1] was 2.02 µM; in assay [2], 2.01 µM; in assay [3], 2.31 µM; in assay [5], 3.37 µM; in assay [6], 1.32 µM; in assay [10] it was 3.08 µM. Moreover, the figures for the GI50 in [7] and in assay [8] were 3.65 µM and 1.91 µM, respectively. For the same compound, the TGI stood at 8.6 µM in assay [1]; 4.2 µM in [2]; 7.23 µM in assay [3]; 17.3 µM in assay [5]; 3.34 µM in assay [6]; 13.3 µM in assay [10]. Also, the total growth inhibition concentration (TGI) in assay [7] amounted to 29.5 µM; in assay [8], 9.56 µM.
As to `Cc1ccc(S(=O)(=O)/N=c2\ssc(Nc3ccccc3)c2Cl)cc1`, the GI50 in assay [3] was 1.15 µM; in assay [4], 15.5 µM; in [5], 23.6 µM; in assay [6], 8.92 µM; in [7], 30.9 µM; in [9], 7.43 µM. In addition, the TGI in assay [3] was 12.4 µM; in assay [4], greater than 50 µM; in assay [5], greater than 50 µM; in assay [6], 21.3 µM; in assay [7], greater than 50 µM; in assay [9], greater than 50 µM.
Take `O=[N+]([O-])c1cc(CCl)ccc1CCl`: the TGI in assay [1] was determined as 3.26 µM; in [2] it was 3.19 µM; in [3], 19.7 µM; in assay [5] it was 2.93 µM; in assay [6] it was 3.14 µM; in [10], 5.01 µM. In addition, the results for the concentration for total growth inhibition (TGI) in [7], in assay [8] and in assay [9] were 2.92 µM, 6.88 µM and 3.37 µM, respectively.
As for `O=C(Nc1ccccc1)Nc1cccc(-n2cc(-c3ccncc3)c(-c3ccc(O)c(Cl)c3)n2)c1`, the GI50 in assay [1] was 3.41 µM; in assay [2] it was 4.95 µM; in [3], 2.1 µM; in assay [4] it was 2.32 µM; in [5] it was 4.93 µM; in assay [6], 2.17 µM. The GI50 was 3.27 µM in [10], 6.06 µM in assay [7] and 1.68 µM in [8]. In addition, the concentration for total growth inhibition (TGI) in assay [1] came to 13.9 µM; in assay [2], 21 µM; in [3] it was 4.73 µM; in [4] it was 5.36 µM; in assay [5] it was 53.6 µM; in assay [6], 6.06 µM. Moreover, the TGI in [10] worked out at 18.6 µM; in [7], 41.4 µM; in [8], 10.7 µM.
On to `C#CCN=C(N/N=C/c1ccc([N+](=O)[O-])o1)NS(=O)(=O)c1cc(C)c(Cl)cc1SCC(N)=O`, for which the GI50 in assay [1] was 8.03 µM; in assay [2] it was 26.9 µM; in assay [3], 22.8 µM; in assay [4], 21.1 µM; in [5] it was 12.9 µM; in assay [6] it was 22.6 µM. Besides, the GI50 is 14.5 µM in [10], 13.9 µM in [7] and 25.8 µM in [8]. Also, the TGI in assay [1] is 20.3 µM; in assay [2], 84.4 µM; in [3] it was 47.1 µM; in assay [4] it was greater than 100 µM; in [5] it was 25.7 µM; in [6] it was 84.9 µM. Further, the TGI in [10] was determined as 32.7 µM; in [7], 27.2 µM; in [8], 59.8 µM.
`COc1cc2nc(Sc3c([N+](=O)[O-])ncn3C)[nH]c2cc1OC`: the concentration for total growth inhibition (TGI) was greater than 100 µM in [1]; 30.2 µM in [2]; greater than 100 µM in assay [3]; greater than 100 µM in [5]; greater than 100 µM in assay [6]; greater than 100 µM in assay [10]. For the same compound, the figures for the total growth inhibition concentration (TGI) in assay [7], in assay [8] and in [9] were greater than 100 µM, greater than 100 µM and 45 µM, respectively.
As for `O=C1N=C(c2ccccc2)OC1C(=O)c1ccccc1` (stereo not given), the total growth inhibition concentration (TGI) in [1], in assay [2], in assay [3], in assay [4], in assay [5] and in assay [6] was greater than 100 µM throughout. The TGI in assay [10], in assay [7] and in [8] was greater than 100 µM in each case.
On to `NC(=O)N/N=C(\C(=O)C(=O)Nc1ccc(Cl)c(C(F)(F)F)c1)c1nc2ccc(C(=O)c3ccccc3)cc2[nH]c1=O`, for which the TGI in assay [1], in assay [2], in [3], in assay [6], in [10] and in assay [7] was greater than 100 µM in each case. Besides, the TGI in assay [9] was found to be 47.3 µM.
For the compound `O=C1C(=O)N(C(=O)c2ccc(Cl)c(Cl)c2)c2ccc(Cl)cc21`, the concentration for total growth inhibition (TGI) was greater than 100 µM in [2]; greater than 100 µM in [3]; 61.6 µM in assay [4]; greater than 100 µM in assay [6]; greater than 100 µM in assay [10]; greater than 100 µM in assay [7]. The same compound returned a concentration for total growth inhibition (TGI) in assay [8] greater than 100 µM.
On to `Nc1ncnc(NC2C=C(CO)C(O)C2O)c1[N+](=O)[O-]` (stereo not given), for which the concentration for total growth inhibition (TGI) in assay [1] was 75.4 µM; in assay [2], greater than 100 µM; in assay [3], greater than 100 µM; in assay [4] it was greater than 100 µM; in assay [5] it was greater than 100 µM; in assay [6], greater than 100 µM. Further, the TGI in assay [10], in assay [7] and in assay [8] was greater than 100 µM in each case.
With `COC(=O)/C(C#N)=C1\CCC(O)N1C` (stereo not given), the concentration for total growth inhibition (TGI) in assay [1], in [3], in [4], in assay [5], in assay [6] and in assay [10] was greater than 100 µM in each case. In addition, the TGI in assay [7] and in [8] was greater than 100 µM in each case.
Consider `Cc1cc(C)c(O)c(Cc2cccc(Cc3cc(C)cc(C)c3O)c2O)c1`, for which the TGI in assay [1], in [2], in assay [3], in [5], in assay [6] and in assay [10] was greater than 100 µM throughout. For the same compound, the concentration for total growth inhibition (TGI) in assay [7], in assay [8] and in assay [9] was greater than 100 µM in each case.
With `Cc1oc2c(C)c(O)c3c(c2c1C1(C)OCCO1)C(=O)C=C(Cl)C3=O`, the TGI in assay [1], in assay [2], in assay [3], in assay [4], in assay [5] and in assay [6] was greater than 100 µM throughout. Further, the total growth inhibition concentration (TGI) in assay [10], in [7] and in assay [9] was greater than 100 µM in each case.
On to `O=C1OCc2c1cc(F)cc2[N+](=O)[O-]`, for which the GI50 is greater than 100 µM in assay [1]; 47.6 µM in assay [2]; greater than 100 µM in [3]; greater than 100 µM in [4]; greater than 100 µM in assay [5]; greater than 100 µM in [6]. The GI50 in [10], in [7] and in [8] was greater than 100 µM throughout. The TGI in [1], in [2], in assay [3], in [4], in assay [5] and in assay [6] was greater than 100 µM each time. Besides, the concentration for total growth inhibition (TGI) in assay [10], in assay [7] and in assay [8] was greater than 100 µM each time.
